# Molecular target: T1, Dimer of Gag-Pol polyprotein [489-587] (Human immunodeficiency virus 1, UniProt P12497)
# T1 construct: 489-587
# Experiment: Protease Inhibition Assay
# Conditions: pH 5.5; 30 °C
# Procedure: Sensitivity of HIV-1 protease activity to protease inhibitors was determined by a peptide substrate cleavage assay. Protease products were analyzed on a reverse-phase high-pressure liquid chromatograph.
row,Structure (SMILES),IC50 [pM]
1,"CC(C)(C)OC(=O)N[C@@H](Cc1ccccc1)[C@@H](O)C[C@@H](Cc1ccc(OCC(=O)O)cc1)C(=O)N[C@H]1c2ccccc2C[C@H]1O [2-{4-[(2R)-2-[(2S,3S)-3-{[(tert-butoxy)carbonyl]amino}-2-hydroxy-4-phenylbutyl]-2-{[(1S,2R)-2-hydroxy-2,3-dihydro-1H-inden-1-yl]carbamoyl}ethyl]phenoxy}acetic acid]",40
2,"CC(C)(C)OC(=O)N[C@@H](Cc1ccccc1)[C@@H](O)C[C@@H](Cc1ccc(OCC[N+]2(O)CCOCC2)cc1)C(=O)N[C@H]1c2ccccc2C[C@H]1O [4-(2-{4-[(2R)-2-[(2S,3S)-3-{[(tert-butoxy)carbonyl]amino}-2-hydroxy-4-phenylbutyl]-2-{[(1S,2R)-2-hydroxy-2,3-dihydro-1H-inden-1-yl]carbamoyl}ethyl]phenoxy}ethyl)-4-hydroxymorpholin-4-ium]",200
3,CC(C)(C)OC(=O)N[C@@H](Cc1ccccc1)[C@@H](O)C[C@@H](Cc1ccc(OCc2ccccc2)cc1)C(=O)N[C@H]1c2ccccc2C[C@H]1O [N-(2(R)-Hydroxy-1(S)-indany1)-5(S)-[(tert-butyloxycarbonyl)amino]-4(S)-hydroxy-6-phenyl-2(R)-[[4-(benzyloxy)phenyl]methyl]hexanamide],180
4,CC(C)(C)OC(=O)N[C@@H](Cc1ccc(O)cc1)[C@@H](O)C[C@@H](Cc1ccccc1)C(=O)N[C@H]1c2ccccc2C[C@H]1O [N-(2(R)-Hydroxy-1(S)-indanyl)-5(S)-[(tert-butyloxycarbonyl)amino]-4(S)-hydroxy-6-(4-hydroxyphenyl)-2-(R)-(phenylmethyl)hexanamide],350
5,CC(C)(C)OC(=O)N[C@@H](Cc1ccc(O)cc1)[C@@H](O)C[C@@H](Cc1ccc(O)cc1)C(=O)N[C@H]1c2ccccc2C[C@H]1O [N-(2(R)-Hydroxy-1(S)-indanyl)-5(S)-[(tert-butyloxycarbonyl)amino]-4(S)-hydroxy-6-(4-hydroxyphenyl)-2-(R)-[(4-hydroxyphenyl)methyl]hexanamide],150
6,"CC(C)(C)OC(=O)N[C@@H](Cc1ccccc1)[C@@H](O)C[C@@H](Cc1ccc(OCCN2CCS(=O)(=O)CC2)cc1)C(=O)N[C@H]1c2ccccc2C[C@H]1O [N-(2(R)-Hydroxy-1(S)-indanyl)-5(S)-[(tert-butyloxycarbonyl)amino]-4(S)-hydroxy-6-phenyl-2(R)-[[4-[2-(1,1-dioxythiamorpholin-4-yl)ethoxy]phenyl]methyl]hexanamide]",80
7,CC(C)(C)OC(=O)N[C@@H](Cc1ccccc1)[C@@H](O)C[C@@H](Cc1ccc(OCCN2CCSCC2)cc1)C(=O)N[C@H]1c2ccccc2C[C@H]1O [N-(2(R)-Hydroxy-1(S)-indanyl)-5(S)-[(tert-butyloxycarbonyl)amino]-4(S)-hydroxy-6-phenyl-2(R)-[[4-[2-(thiamorpholin-4-yl)ethoxy]phenyl]methyl]hexanamide],470
8,"COCCN(CCOC)CCOc1ccc(C[C@H](C[C@H](O)[C@H](Cc2ccccc2)NC(=O)OC(C)(C)C)C(=O)N[C@H]2c3ccccc3C[C@H]2O)cc1 [N-(2(R)-Hydroxy-1(S)-indanyl)-5(S)-[(tert-butyloxycarbonyl)amino]-4(S)-hydroxy-6-phenyl-2(R)-[[4-[2-[N,N-bis(2-methoxyethyl)amino]ethoxy]phenyl]methyl]hexanamide]",900
9,"CC(C)(C)OC(=O)N[C@@H](Cc1ccccc1)[C@@H](O)C[C@@H](Cc1ccc(OCCN2CCCCC2)cc1)C(=O)N[C@H]1c2ccccc2C[C@H]1O [tert-butyl N-[(2S,3S,5R)-3-hydroxy-5-{[(1S,2R)-2-hydroxy-2,3-dihydro-1H-inden-1-yl]carbamoyl}-1-phenyl-5-({4-[2-(piperidin-1-yl)ethoxy]phenyl}methyl)pentan-2-yl]carbamate]",1600
10,"CC(C)(C)OC(=O)N[C@@H](Cc1ccccc1)[C@@H](O)C[C@@H](Cc1ccc(OCCN2CCCC2)cc1)C(=O)N[C@H]1c2ccccc2C[C@H]1O [tert-butyl N-[(2S,3S,5R)-3-hydroxy-5-{[(1S,2R)-2-hydroxy-2,3-dihydro-1H-inden-1-yl]carbamoyl}-1-phenyl-5-({4-[2-(pyrrolidin-1-yl)ethoxy]phenyl}methyl)pentan-2-yl]carbamate]",1800
11,"CC(C)(C)OC(=O)N[C@@H](Cc1ccc(OCCN2CCOCC2)cc1)[C@@H](O)C[C@@H](Cc1ccc(OCCN2CCOCC2)cc1)C(=O)N[C@H]1c2ccccc2C[C@H]1O [tert-butyl N-[(2S,3S,5R)-3-hydroxy-5-{[(1S,2R)-2-hydroxy-2,3-dihydro-1H-inden-1-yl]carbamoyl}-1-{4-[2-(morpholin-4-yl)ethoxy]phenyl}-5-({4-[2-(morpholin-4-yl)ethoxy]phenyl}methyl)pentan-2-yl]carbamate]",1900
12,"CC(C)(C)OC(=O)N[C@@H](Cc1ccccc1)[C@@H](O)C[C@@H](Cc1ccc(OCCN2CC[S+]([O-])CC2)cc1)C(=O)N[C@H]1c2ccccc2C[C@H]1O [tert-butyl N-[(2S,3S,5R)-3-hydroxy-5-{[(1S,2R)-2-hydroxy-2,3-dihydro-1H-inden-1-yl]carbamoyl}-5-({4-[2-(1-oxo-1,4-thiomorpholin-4-yl)ethoxy]phenyl}methyl)-1-phenylpentan-2-yl]carbamate]",70
13,"CN1CCN(CCOc2ccc(C[C@H](C[C@H](O)[C@H](Cc3ccccc3)NC(=O)OC(C)(C)C)C(=O)N[C@H]3c4ccccc4C[C@H]3O)cc2)CC1 [tert-butyl N-[(2S,3S,5R)-3-hydroxy-5-{[(1S,2R)-2-hydroxy-2,3-dihydro-1H-inden-1-yl]carbamoyl}-5-({4-[2-(4-methylpiperazin-1-yl)ethoxy]phenyl}methyl)-1-phenylpentan-2-yl]carbamate]",200
14,"CC(C)(C)OC(=O)N[C@@H](Cc1ccccc1)[C@@H](O)C[C@@H](Cc1ccc(OCC(=O)N2CCOCC2)cc1)C(=O)N[C@H]1c2ccccc2C[C@H]1O [tert-butyl N-[(2S,3S,5R)-3-hydroxy-5-{[(1S,2R)-2-hydroxy-2,3-dihydro-1H-inden-1-yl]carbamoyl}-5-({4-[2-(morpholin-4-yl)-2-oxoethoxy]phenyl}methyl)-1-phenylpentan-2-yl]carbamate]",200
15,"CC(C)(C)OC(=O)N[C@@H](Cc1ccccc1)[C@@H](O)C[C@@H](Cc1ccc(OCCO)cc1)C(=O)N[C@H]1c2ccccc2C[C@H]1O [tert-butyl N-[(2S,3S,5R)-3-hydroxy-5-{[(1S,2R)-2-hydroxy-2,3-dihydro-1H-inden-1-yl]carbamoyl}-5-{[4-(2-hydroxyethoxy)phenyl]methyl}-1-phenylpentan-2-yl]carbamate]",90
16,"CN(C)CCOc1ccc(C[C@H](C[C@H](O)[C@H](Cc2ccccc2)NC(=O)OC(C)(C)C)C(=O)N[C@H]2c3ccccc3C[C@H]2O)cc1 [tert-butyl N-[(2S,3S,5R)-5-({4-[2-(dimethylamino)ethoxy]phenyl}methyl)-3-hydroxy-5-{[(1S,2R)-2-hydroxy-2,3-dihydro-1H-inden-1-yl]carbamoyl}-1-phenylpentan-2-yl]carbamate]",2100
17,"CC(C)(C)OC(=O)N[C@@H](Cc1ccc(OCCN2CCOCC2)cc1)[C@@H](O)C[C@@H](Cc1ccccc1)C(=O)N[C@H]1c2ccccc2C[C@H]1O [tert-butyl N-[(2S,3S,5R)-5-benzyl-3-hydroxy-5-{[(1S,2R)-2-hydroxy-2,3-dihydro-1H-inden-1-yl]carbamoyl}-1-{4-[2-(morpholin-4-yl)ethoxy]phenyl}pentan-2-yl]carbamate]",550
